Test results: article PMC6367500, “18β-glycyrrhetyl-3-O-sulfate would be a causative agent of licorice-induced pseudoaldosteronism” (Scientific Reports, 2019)

Experiments:
[1] = Plasma and urine levels of GA metabolites in EHBRs orally treated with GA (LC-MS/MS); type: in vivo, Eisai hyperbilirubinuria rats (EHBRs); settings: for level in accumulated urine for 12 h / concentration at 12 h / level in accumulated urine for 12 h relative to that of 3MGA: GA 200 mg/kg orally; for concentration at 12 h: oral, read-out: plasma concentration at 12 h after treatment
Method: (§1) Female SD rats or EHBRs (9-week-old) were anesthetized by an intraperitoneal (i.p.) injection of urethane (1 g/kg) and their jugular veins were exposed. […] Feces were homogenized in phosphate-buffered saline (PBS; 0.15 M, pH 7.2), centrifuged (1.2 × 10^4 g, 10 min), and the supernatants were collected. After 1 week as a washout period, female SD rats were anesthetized by an i.p. injection of urethane (1 g/kg) and their biliary tract was cannulated. […] Aliquots (10 µl) of plasma, urine, homogenate of feces, or bile were mixed with 20 µl of subtilisin (0.91 U/ml) and incubated at 37 °C for 30 min, followed by the addition of 70 µl of astragaloside IV solution (1 µg/ml in ethanol containing 0.5% formic acid, used as internal standard), and kept at −20 °C for 30 min.

[2] = tested on: anti-3MGA-mAb; experiment: Competitive ELISA using anti-3MGA-mAb; type: binding; settings: specificity to 3MGA calibrated to 100%, n = 1
Method: (§2) Figure 5 Dot-blot analysis and ELISA detection range of GL metabolites using anti-3MGA-monoclonal antibody (mAb). GL metabolites (1 µg each) were spotted on a PES membrane, and colored using an anti-3MGA-mAb (A). Competitive ELISA using anti-3MGA-mAb for GL metabolites was performed. Data are represented from a single analysis (n = 1) (B). […] Data are represented as mean ± S.D. (n = 3). Two-way ANOVA indicated a significant difference between GA and 3 (F1,36 = 4441, P < 0.001), concentrations (F8,36 = 315, P < 0.001), and their interactions (F8,36 = 281, P < 0.001). The calibrated line for the absorbance-concentration profile of 3 was calculated by the linear least-squares method, and the regression formula is shown in graph (C).
When the specificity of the mAb to 3MGA was calibrated to 100%, the cross-reactivity for GL, GA, 1, 2, and 3 was 0.23%, 2.2%, 4.8%, 4.0%, and 23%, respectively. […] We confirmed the selectivity of the anti-3MGA-mAb in discriminating between 3 and GA and established the detectable measurement range for 3 in this ELISA system.
3MGA-HSA (1 µg/ml in 50 mM carbonate buffer, pH 9.6) was added into a 96-well plate (Nagel Nunc, Penfield, NY, USA) (100 µl in a well) and incubated at 37 °C for 1 h. After the removal of 3MGA-HSA, the wells were washed three times with T-PBS (200 µl in a well). The wells were incubated with 300 µl in a well of 5% skim milk at 4 °C overnight. After the wells had been washed with T-PBS three times, the sample solution diluted with Can Get Signal® Solution 1 (Toyobo Co., Ltd., Osaka, Japan) (50 µl in a well) and anti-3MGA-mAb (1:4,000 dilution with Can Get Signal® Solution 1) (50 µl in a well) were added to the wells, and the plate was incubated at 37 °C for 1 h. After the wells had been washed with T-PBS three times, HRP-labeled goat anti-mouse IgG (Fc specific) antibody (Sigma, 1:20,000 dilution with Can Get Signal® Solution 2) was added into the wells (100 µl in a well) and the plate was incubated at 37 °C for 1 h. Next, the wells were washed with T-PBS three times and the substrate solution (3,3′,5,5′-tetramethylbensidine, TMB solution; Fujifilm Wako Pure Chemical Corporation, Osaka, Japan) was added to the wells (100 µl in a well), followed by incubation at room temperature for 5 min. Then, the stop solution (0.5 M sulfuric acid) was added to the wells (100 µl in a well) and the optical density was measured at 450 nm/630 nm.

[3] = Fecal excretion of GA metabolites in SD rats injected i.v. with GA; type: in vivo; settings: GA 0.2 mg/kg i.v.
Method: Then, bile samples were collected for 4 h (E).
as §1

[4] = tested on: anti-3MGA-mAb; experiment: Dot-blot analysis using anti-3MGA-mAb; type: binding; settings: 1 µg spotted on PES membrane, imaging analysis
Method: We confirmed the cross-reactivity of anti-3MGA-mAb against these GL metabolites. GL, GA, 3MGA, and compounds 1, 2, and 3 (1 µg each) were spotted on a polyethersulfone (PES) membrane, fixed onto the membrane, and colored using an anti-3MGA-mAb (Fig. 5A). […] Thus, the anti-3MGA-mAb cross-reacted to some extent with other metabolites of GL.
as §2
Anti-3MGA-mAb and 3MGA-human serum albumin (HSA)-conjugate were developed by the same protocols established in our previous studies[22],[23]. GL, GA, 3MGA, 1, 2, and 3 (1 µg each) were spotted on a Mustang^TM E positively charged PES membrane (Pall Co., East Hills, NY, USA). The membrane was then immersed into 0.1 M MES buffer (pH 4.7) containing 2% EDC and 1% NHS, and kept at room temperature for 1 h to activate the carboxyl group. After washing with distilled water, PBS containing 1% bovine serum albumin (BSA) was added to the membrane, which was shaken at room temperature for 2 h for fixation. Next, the membrane was blocked with PBS containing 5% skim milk (Morinaga-milk, Tokyo, Japan) and 0.1% Tween 20 at 4 °C overnight to reduce nonspecific adsorption. After washing twice with PBS containing 0.1% Tween 20 (T-PBS) for 5 min, the membrane was incubated with anti-3MGA-mAb and kept at room temperature for 3 h with constant agitation. The membrane was then washed twice with T-PBS for 5 min and treated with 1:500 diluted horseradish peroxidase (HRP)-labeled goat anti-mouse IgG (whole molecule; Sigma, St. Louis, MO, USA) antibody in T-PBS for 1 h with gentle shaking. Finally, the membrane was washed twice with T-PBS and once with PBS, and exposed to 1 mg/ml of freshly prepared 4-chloro-1-naphthol-0.03% H2O2 in PBS for 15 min at room temperature. The reaction was stopped by washing with distilled water, and the immunostained PES membrane was allowed to dry and then photographed. The positively stained areas were measured using Image J 1.46r (http://imageJ.nih.gov/ij).

[5] = female, EHBR (Eisai hyperbilirubinuria rat), rat, plasma

Structure (SMILES)	level in accumulated urine for 12 h [1] [nmol]	concentration at 12 h [1, 5] [µM]	detection in feces collected for 24 h [3]	Tmax ([1]; female, EHBR (Eisai hyperbilirubinuria rat), rat, plasma, po, 0.2 g/kg, GA 0.20 g/kg orally, read-out: time of maximum plasma concentration) [h]	level in accumulated urine for 12 h relative to that of 3MGA [1] [fold]	cross-reactivity of anti-3MGA-mAb [2] [%]	area of positive staining in dot-blot [4] [pixels]
CC1(C)[C@@H](O[C@@H]2O[C@H](C(=O)O)[C@@H](O)[C@H](O)[C@H]2O)CC[C@]2(C)[C@H]3C(=O)C=C4[C@@H]5C[C@@](C)(C(=O)O)CC[C@]5(C)CC[C@@]4(C)[C@]3(C)CC[C@@H]12 [3MGA, 3-monoglucuronyl glycyrrhetinic acid, reference compound]	0.31	0.09	not found			100	3395
CC1(C)[C@@H](O)CC[C@]2(C)[C@H]3C(=O)C=C4[C@@H]5C[C@@](C)(C(=O)O)CC[C@]5(C)CC[C@@]4(C)[C@]3(C)CC[C@@H]12 [GA, glycyrrhetinic acid, reference compound]	0.05	~10		1		2.2	97
CC1(C)[C@@H](OS(=O)(=O)O)CC[C@]2(C)[C@H]3C(=O)C=C4[C@@H]5C[C@@](C)(C(=O)O)CC[C@]5(C)CC[C@@]4(C)[C@]3(C)CC[C@@H]12 [compound 3, 18β-glycyrrhetyl-3-O-sulfate]		~10	found		62	23	146

More lines, main results first:

level in accumulated urine for 12 h [1] [nmol]	concentration at 12 h [1, 5] [µM]	detection in feces collected for 24 h [3]	Tmax ([1]; female, EHBR (Eisai hyperbilirubinuria rat), rat, plasma, po, 0.2 g/kg, GA 0.20 g/kg orally, read-out: time of maximum plasma concentration) [h]	level in accumulated urine for 12 h relative to that of 3MGA [1] [fold]	Structure (SMILES)	cross-reactivity of anti-3MGA-mAb [2] [%]	area of positive staining in dot-blot [4] [pixels]
	~10	not found		8	CC1(C)[C@@H](OS(=O)(=O)O)CC[C@]2(C)[C@H]3C(=O)C=C4[C@@H]5C[C@@](C)(C(=O)O[C@@H]6O[C@H](C(=O)O)[C@@H](O)[C@H](O)[C@H]6O)C[C@H](O)[C@]5(C)CC[C@@]4(C)[C@]3(C)CC[C@@H]12 [compound 1, 22α-hydroxy-18β-glycyrrhetyl-3-O-sulfate-30-glucuronide]	4.8	606
	~10	found		110	CC1(C)[C@@H](OS(=O)(=O)O)CC[C@]2(C)[C@H]3C(=O)C=C4[C@@H]5C[C@@](C)(C(=O)O)C[C@H](O)[C@]5(C)CC[C@@]4(C)[C@]3(C)CC[C@@H]12 [compound 2, 22α-hydroxy-18β-glycyrrhetyl-3-O-sulfate]	4.0	79
